Reference: ChEMBL document CHEMBL4304773, “Nitroimidazole-containing compounds and their antibacterial and antitubercular activities” (2019)
In brackets after ≈: the same amount, converted by molar mass.

How the values were obtained:
Assay type in all cases: functional
Escherichia coli [1] = assay: Antibacterial activity against Escherichia coli infected in mouse
Staphylococcus aureus [2] = assay: Antibacterial activity against Staphylococcus aureus ATCC 29213
Pseudomonas aeruginosa [3] = assay: Antibacterial activity against Pseudomonas aeruginosa
Escherichia coli [4] = assay: Antibacterial activity against Escherichia coli
Pseudomonas aeruginosa [5] = assay: Antibacterial activity against Pseudomonas aeruginosa ATCC 27853
Staphylococcus aureus [6] = assay: Antibacterial activity against Staphylococcus aureus ATCC 25923
Acinetobacter baumannii = assay: Antibacterial activity against Acinetobacter baumannii
Escherichia coli [7] = assay: Antibacterial activity against Escherichia coli ATCC 25922
Klebsiella pneumoniae = assay: Antibacterial activity against Klebsiella pneumoniae
Staphylococcus aureus [8] = assay: Antibacterial activity against methicillin-resistant Staphylococcus aureus N315
Enterococcus faecalis = assay: Antibacterial activity against Enterococcus faecalis
Staphylococcus aureus [9] = assay: Antibacterial activity against Staphylococcus aureus
Candida albicans = assay: Antifungal activity against Candida albicans
Bacillus subtilis = assay: Antibacterial activity against Bacillus subtilis

Question: For COC(=O)c1cn(C2CC2)c2cc(N3CCN(CCn4c([N+](=O)[O-])cnc4C)CC3)c(F)cc2c1=O, which ED50 (Escherichia coli [1]) is on record?
Answer: Its ED50 is 3.5 to 13.2 mg/kg.

Question: Which ED50 (Escherichia coli [1]) does the source give for CCn1cc(C(=O)OC)c(=O)c2cc(F)c(N3CCN(CCn4c([N+](=O)[O-])cnc4C)CC3)nc21 here?
Answer: Its ED50 is 3.5 to 13.2 mg/kg.

Question: CCOC(=O)c1cn(C2CC2)c2cc(N3CCN(CCn4c([N+](=O)[O-])cnc4C)CC3)c(F)cc2c1=O was tested. Which ED50 (Escherichia coli [1]) did it give?
Answer: The ED50 was 3.5 to 13.2 mg/kg.

Question: C#CCN1CCN(c2ccc3c4c(cccc24)C(=O)N(CC(O)Cn2c([N+](=O)[O-])cnc2C)C3=O)CC1 (stereo unspecified) was tested. Which MIC (Staphylococcus aureus [2]) did it give?
Answer: Its MIC is 13 to 1020 µM (≈ 6.53 to 513 µg/mL).

Question: What about the MIC (Pseudomonas aeruginosa [3]) of the same compound?
Answer: Its MIC is 13 to 1020 µM.

Question: What about the MIC (Escherichia coli [4]) of the same compound?
Answer: Its MIC is 13 to 1020 µM.

Question: And the MIC (Pseudomonas aeruginosa [5])?
Answer: The MIC was 13 to 1020 µM (≈ 6.53 to 513 µg/mL).

Question: What about the MIC (Staphylococcus aureus [6]) of the same compound?
Answer: The MIC was 13 to 1020 µM (≈ 6.53 to 513 µg/mL).

Question: What about the MIC (Acinetobacter baumannii) of the same compound?
Answer: Its MIC is 13 to 1020 µM (≈ 6.53 to 513 µg/mL).

Question: And the MIC (Escherichia coli [7])?
Answer: The MIC was 13 to 1020 µM (≈ 6.53 to 513 µg/mL).

Question: And the MIC (Klebsiella pneumoniae)?
Answer: The MIC was 13 to 1020 µM (≈ 6.53 to 513 µg/mL).

Question: And the MIC (Staphylococcus aureus [8])?
Answer: Its MIC is 13 to 1020 µM (≈ 6.53 to 513 µg/mL).

Question: What about the MIC (Enterococcus faecalis) of the same compound?
Answer: Its MIC is 13 to 1020 µM (≈ 6.53 to 513 µg/mL).

Question: With CCn1cc(C(=O)O)c(=O)c2cc(F)c(N3CCN(CCn4c([N+](=O)[O-])cnc4C)CC3)nc21 as the compound, how does the ED50 (Escherichia coli [1]) read?
Answer: The ED50 was 3.5 to 13.2 mg/kg.

Question: CC(=O)N1N=C(Cn2c([N+](=O)[O-])cnc2C)OC1(C)c1ccc(Br)cc1 (stereo unspecified) was tested. Which MIC (Staphylococcus aureus [9]) did it give?
Answer: The MIC was 0.25 to 0.5 µg/mL (≈ 0.592 to 1.18 µM).

Question: What about the MIC (Candida albicans) of the same compound?
Answer: Its MIC is 0.25 to 0.5 µg/mL (≈ 0.592 to 1.18 µM).

Question: What about the MIC (Pseudomonas aeruginosa [3]) of the same compound?
Answer: The MIC was 0.25 to 0.5 µg/mL.

Question: And the MIC (Escherichia coli [4])?
Answer: Its MIC is 0.25 to 0.5 µg/mL.

Question: And the MIC (Bacillus subtilis)?
Answer: The MIC was 0.25 to 0.5 µg/mL (≈ 0.592 to 1.18 µM).

Question: What does the source list for CCCCCCN1CCN(c2ccc3c4c(cccc24)C(=O)N(CC(O)Cn2c([N+](=O)[O-])cnc2C)C3=O)CC1 (stereo unspecified)?
Answer: MIC (Staphylococcus aureus [2]): 13 to 1020 µM (≈ 7.13 to 560 µg/mL); MIC (Pseudomonas aeruginosa [3]): 13 to 1020 µM; MIC (Escherichia coli [4]): 13 to 1020 µM; MIC (Pseudomonas aeruginosa [5]): 13 to 1020 µM (≈ 7.13 to 560 µg/mL); MIC (Staphylococcus aureus [6]): 13 to 1020 µM (≈ 7.13 to 560 µg/mL); MIC (Acinetobacter baumannii): 13 to 1020 µM (≈ 7.13 to 560 µg/mL); MIC (Escherichia coli [7]): 13 to 1020 µM (≈ 7.13 to 560 µg/mL); MIC (Klebsiella pneumoniae): 13 to 1020 µM (≈ 7.13 to 560 µg/mL); MIC (Staphylococcus aureus [8]): 13 to 1020 µM (≈ 7.13 to 560 µg/mL); MIC (Enterococcus faecalis): 13 to 1020 µM (≈ 7.13 to 560 µg/mL)

Question: Which MIC (Staphylococcus aureus [2]) does the source give for CCCCCCCCN1CCN(c2ccc3c4c(cccc24)C(=O)N(CC(O)Cn2c([N+](=O)[O-])cnc2C)C3=O)CC1 (stereo unspecified) here?
Answer: Its MIC is 13 to 1020 µM (≈ 7.5 to 588 µg/mL).

Question: And the MIC (Pseudomonas aeruginosa [3])?
Answer: Its MIC is 13 to 1020 µM.

Question: And the MIC (Escherichia coli [4])?
Answer: The MIC was 13 to 1020 µM.

Question: And the MIC (Pseudomonas aeruginosa [5])?
Answer: The MIC was 13 to 1020 µM (≈ 7.5 to 588 µg/mL).

Question: What about the MIC (Staphylococcus aureus [6]) of the same compound?
Answer: The MIC was 13 to 1020 µM (≈ 7.5 to 588 µg/mL).

Question: And the MIC (Acinetobacter baumannii)?
Answer: Its MIC is 13 to 1020 µM (≈ 7.5 to 588 µg/mL).

Question: And the MIC (Escherichia coli [7])?
Answer: The MIC was 13 to 1020 µM (≈ 7.5 to 588 µg/mL).

Question: What about the MIC (Klebsiella pneumoniae) of the same compound?
Answer: The MIC was 13 to 1020 µM (≈ 7.5 to 588 µg/mL).

Question: And the MIC (Staphylococcus aureus [8])?
Answer: Its MIC is 13 to 1020 µM (≈ 7.5 to 588 µg/mL).

Question: What about the MIC (Enterococcus faecalis) of the same compound?
Answer: The MIC was 13 to 1020 µM (≈ 7.5 to 588 µg/mL).

Question: For CCCCCCCCCCCCN1CCN(c2ccc3c4c(cccc24)C(=O)N(CC(O)Cn2c([N+](=O)[O-])cnc2C)C3=O)CC1 (stereo unspecified), which MIC (Staphylococcus aureus [2]) is on record?
Answer: The MIC was 13 to 1020 µM (≈ 8.23 to 645 µg/mL).

Question: What about the MIC (Pseudomonas aeruginosa [3]) of the same compound?
Answer: Its MIC is 13 to 1020 µM.

Question: What about the MIC (Escherichia coli [4]) of the same compound?
Answer: The MIC was 13 to 1020 µM.

Question: And the MIC (Pseudomonas aeruginosa [5])?
Answer: The MIC was 13 to 1020 µM (≈ 8.23 to 645 µg/mL).

Question: And the MIC (Staphylococcus aureus [6])?
Answer: The MIC was 13 to 1020 µM (≈ 8.23 to 645 µg/mL).

Question: And the MIC (Acinetobacter baumannii)?
Answer: Its MIC is 13 to 1020 µM (≈ 8.23 to 645 µg/mL).

Question: What about the MIC (Escherichia coli [7]) of the same compound?
Answer: The MIC was 13 to 1020 µM (≈ 8.23 to 645 µg/mL).

Question: What about the MIC (Klebsiella pneumoniae) of the same compound?
Answer: The MIC was 13 to 1020 µM (≈ 8.23 to 645 µg/mL).

Question: What about the MIC (Staphylococcus aureus [8]) of the same compound?
Answer: Its MIC is 13 to 1020 µM (≈ 8.23 to 645 µg/mL).

Question: What about the MIC (Enterococcus faecalis) of the same compound?
Answer: Its MIC is 13 to 1020 µM (≈ 8.23 to 645 µg/mL).

Question: How did the ED50 (Escherichia coli [1]) turn out when Cc1ncc([N+](=O)[O-])n1CCN1CCN(c2cc3c(cc2F)c(=O)c(C(=O)O)cn3C2CC2)CC1 was run?
Answer: Its ED50 is 2.56 to 3.88 mg/kg.

Question: Which MIC (Staphylococcus aureus [2]) does the source give for Cc1ncc([N+](=O)[O-])n1CC(O)CN1C(=O)c2cccc3c(N4CCCCC4)ccc(c23)C1=O (stereo unspecified) here?
Answer: Its MIC is 69 to 1140 µM (≈ 32 to 528 µg/mL).

Question: What about the MIC (Pseudomonas aeruginosa [3]) of the same compound?
Answer: The MIC was 69 to 1140 µM.

Question: And the MIC (Escherichia coli [4])?
Answer: Its MIC is 69 to 1140 µM.

Question: What about the MIC (Pseudomonas aeruginosa [5]) of the same compound?
Answer: The MIC was 69 to 1140 µM (≈ 32 to 528 µg/mL).

Question: And the MIC (Staphylococcus aureus [6])?
Answer: The MIC was 69 to 1140 µM (≈ 32 to 528 µg/mL).

Question: What about the MIC (Acinetobacter baumannii) of the same compound?
Answer: Its MIC is 69 to 1140 µM (≈ 32 to 528 µg/mL).

Question: And the MIC (Escherichia coli [7])?
Answer: Its MIC is 69 to 1140 µM (≈ 32 to 528 µg/mL).

Question: And the MIC (Klebsiella pneumoniae)?
Answer: The MIC was 69 to 1140 µM (≈ 32 to 528 µg/mL).

Question: And the MIC (Staphylococcus aureus [8])?
Answer: Its MIC is 69 to 1140 µM (≈ 32 to 528 µg/mL).

Question: And the MIC (Enterococcus faecalis)?
Answer: The MIC was 69 to 1140 µM (≈ 32 to 528 µg/mL).

Question: Which results are given for NC1CCN(c2c(F)cc3c(=O)c(C(=O)O)cn(C4CC4)c3c2Cl)C1 (stereo unspecified) [CLINAFLOXACIN]?
Answer: MIC (Staphylococcus aureus [2]): 5 to 88 µM (≈ 1.83 to 32.2 µg/mL); MIC (Pseudomonas aeruginosa [3]): 5 to 88 µM; MIC (Escherichia coli [4]): 5 to 88 µM; MIC (Pseudomonas aeruginosa [5]): 5 to 88 µM (≈ 1.83 to 32.2 µg/mL); MIC (Staphylococcus aureus [6]): 5 to 88 µM (≈ 1.83 to 32.2 µg/mL); MIC (Acinetobacter baumannii): 5 to 88 µM (≈ 1.83 to 32.2 µg/mL); MIC (Escherichia coli [7]): 5 to 88 µM (≈ 1.83 to 32.2 µg/mL); MIC (Klebsiella pneumoniae): 5 to 88 µM (≈ 1.83 to 32.2 µg/mL); MIC (Staphylococcus aureus [8]): 5 to 88 µM (≈ 1.83 to 32.2 µg/mL); MIC (Enterococcus faecalis): 5 to 88 µM (≈ 1.83 to 32.2 µg/mL)

Question: How did the ED50 (Escherichia coli [1]) turn out when CCn1cc(C(=O)O)c(=O)c2cc(F)c(N3CCNCC3)nc21 [ENOXACIN] was run?
Answer: The ED50 was 4.22 mg/kg.

Question: OC(Cn1cncn1)(Cn1cncn1)c1ccc(F)cc1F [FLUCONAZOLE] was tested. Which MIC (Staphylococcus aureus [9]) did it give?
Answer: Its MIC is 0.25 µg/mL (≈ 0.816 µM).

Question: What about the MIC (Candida albicans) of the same compound?
Answer: The MIC was 0.25 µg/mL (≈ 0.816 µM).

Question: And the MIC (Pseudomonas aeruginosa [3])?
Answer: The MIC was 0.25 µg/mL.

Question: What about the MIC (Escherichia coli [4]) of the same compound?
Answer: The MIC was 0.25 µg/mL.

Question: And the MIC (Bacillus subtilis)?
Answer: The MIC was 0.25 µg/mL (≈ 0.816 µM).

Question: Which results are given for NC(=O)N/N=C/c1ccc([N+](=O)[O-])o1 [NITROFURAZONE]?
Answer: MIC (Staphylococcus aureus [9]): 0.25 to 0.5 µg/mL (≈ 1.26 to 2.52 µM); MIC (Candida albicans): 0.25 to 0.5 µg/mL (≈ 1.26 to 2.52 µM); MIC (Pseudomonas aeruginosa [3]): 0.25 to 0.5 µg/mL; MIC (Escherichia coli [4]): 0.25 to 0.5 µg/mL; MIC (Bacillus subtilis): 0.25 to 0.5 µg/mL (≈ 1.26 to 2.52 µM)
